The values that follow come from ChEMBL document CHEMBL1128496, “Anti-AIDS (acquired immune deficiency syndrome) agents. 17. New brominated hexahydroxybiphenyl derivatives as potent anti-HIV agents” (J Med Chem, 1995).

The nature of series [1]: Anti-HIV activity was evaluated by measuring the growth inhibition of acutely infected H9 lymphocytes as IC50. The format is functional. The following applies: Human immunodeficiency virus 1.
Series [2] in a line: Anti-HIV activity was evaluated by measuring the growth inhibition of acutely infected H9 lymphocytes as EC50. The following applies: Human immunodeficiency virus 1. The format is functional.
Series [3] is described as follows: Anti-HIV activity evaluated by measuring the growth inhibition of acutely infected H9 lymphocytes as therapeutic index. Details: species or system Human immunodeficiency virus 1. The following applies: for selectivity ratio: human immunodeficiency virus 1, H9 lymphocytes acutely infected with HIV-1, read-out: TI; for TI: Human immunodeficiency virus 1.
The test system of series [4] is H9. Nature of the series: Anti-HIV activity of compound was evaluated by measuring the growth inhibition of acutely infected H9 lymphocytes as IC50. In kind it is functional, Homo sapiens.
Series [5] in a line: Effect against HIV-1 chronically infected promonocytic cell line U1 in the presence of PMA(phorbol 12-myristate 13-acetate). The format is functional, Human immunodeficiency virus 1.
Series [6] in a line: Effect against HIV-1 expression in a chronically infected human T cell line ACH-2. In kind it is functional, Human immunodeficiency virus 1.
Series [7] in a line: Effect against HIV-1 expression in a chronically infected human T cell line ACH-2i n the presence of PMA(phorbol 12-myristate 13-acetate). In kind it is functional, Human immunodeficiency virus 1.
The nature of series [8]: Effect against HIV-1 chronically infected promonocytic cell line U1. In kind it is functional, Human immunodeficiency virus 1.
The subject of series [9] is H9. Nature of the series: Anti-HIV activity of compound was evaluated by measuring the growth inhibition of acutely infected H9 lymphocytes. To be noted: Homo sapiens. In kind it is functional, cell-based.
A short description of series [10]: Effect against HIV-1 expression in a chronically infected human T cell line ACH-2 in the presence of PMA(phorbol 12-myristate 13-acetate). The format is functional, Human immunodeficiency virus 1.
In series [11] the test system is ACH-2 cell line. The experiment in a line: Effect against HIV-1 chronically infected […] cell line ACH-2 cells in the presence of PMA(phorbol 12-myristate 13-acetate). In kind it is functional, Homo sapiens.
For series [12], the system named is ACH-2 cell line. Nature of the series: Effect against HIV-1 chronically infected […] cell line ACH-2 cells. In kind it is functional, Homo sapiens.

Molecules are shown by their SMILES. Values after ≈ are worked out from the molar mass of the structure shown. Values joined by “and” are separate entries in the source; they are usually repeats but may differ in a detail not shown here. Identical values can stand only once.

What is called IC50 is the concentration that gives 50% inhibition. Read a low IC50 as inhibition by little substance. As usually defined, the EC50 is the concentration at which the effect is half-maximal. High values mean lower potency in that assay, low ones higher potency in that assay.

In turn, `COc1c(Br)c(C(=O)O)c(-c2c3c(c(OC)c(Br)c2C(=O)NCCN2CCNCC2)OCO3)c2c1OCO2` displayed an IC50 in series [1] of more than 100 µg/mL. This compound also gave an EC50 in [2] of 30 µg/mL (≈ 45.5 µM). In addition, the selectivity ratio in series [3] was more than 3.3.
In turn, `COc1c(Br)c(C(=O)[O-])c(-c2c3c(c(OC)c(Br)c2C(=O)[O-])OCO3)c2c1OCO2.[Na+].[Na+]` yielded an IC50 in [1] of more than 100 µg/mL. In series [2], this compound came in with an EC50 of more than 100 µg/mL. For the same compound, the selectivity ratio in series [3] came out at 1.
In the case of `COc1c(Br)c(C(=O)O)c(-c2c3c(c(OC)c(Br)c2C(=O)O)OCO3)c2c1OCO2`, the IC50 in [1] was more than 100 µg/mL. The compound further gave an EC50 in series [2] of more than 100 µg/mL. In series [3], this compound registered a TI of 1.
The compound `COc1c2c(c3c(c1Br)c(=O)oc(=O)c1c(Br)c(OC)c4c(c13)OCO4)OCO2` gave a C50 in the series with H9 [4] of more than 100 µg/mL.
Compound `COc1c(Br)c(C(=O)O)c(-c2c3c(c(OC)c(Br)c2C(=O)OCC[N+](C)(C)C)OCO3)c2c1OCO2.[Cl-]` yielded an IC50 in series [1] of more than 100 µg/mL. The compound further returned an EC50 in series [2] of more than 100 µg/mL. Also, the selectivity ratio in [3] is 1.
In turn, `CCOC(=O)c1c(Br)c(OC)c2c(c1-c1c3c(c(OC)c(Br)c1C(=O)[O-])OCO3)OCO2.[Na+]` showed an IC50 in series [1] of more than 100 µg/mL.
Consider `COC(=O)c1c(Br)c(OC)c2c(c1-c1c3c(c(OC)c(Br)c1C(=O)OC)OCO3)OCO2`, for which the p24 is 10131 pg/mL and 10598 pg/mL and 11482 pg/mL and 9850 pg/mL and 8320 pg/mL and 7590 pg/mL in [5]; 169 pg/mL and 141 pg/mL and 135 pg/mL and 142 pg/mL and 122 pg/mL and 123 pg/mL in [6]; 31590 pg/mL and 35635 pg/mL and 30426 pg/mL and 32768 pg/mL and 29173 pg/mL and 27699 pg/mL in [7]; 15 pg/mL and 16 pg/mL and 14 pg/mL and 13 pg/mL and 17 pg/mL in series [8]. In the series on H9 [9], this compound registered an EC50 of 0.23 µg/mL (≈ 0.399 µM). Moreover, the selectivity ratio in series [3] is more than 480.
As for `COc1c(OC(=O)c2ccccc2)c(OC(=O)c2ccccc2)c(Br)c(CO)c1-c1c(CO)c(Br)c(OC(=O)c2ccccc2)c(OC(=O)c2ccccc2)c1OC`, the IC50 in [1] is more than 100 µg/mL. In [2], this compound yielded an EC50 of more than 100 µg/mL. In addition, the selectivity ratio in [3] is 1.
Consider `COC(=O)c1cc(OC(=O)c2ccccc2)c(OC(=O)c2ccccc2)c(OC)c1-c1c(OC)c(OC(=O)c2ccccc2)c(OC(=O)c2ccccc2)c(Br)c1C(=O)OC`, for which the IC50 in series [1] was more than 100 µg/mL. For the same compound, in series [2], the EC50 is more than 100 µg/mL. The selectivity ratio in series [3] was found to be 1.
In series [1], `CCCCCCOC(=O)c1c(Br)c(OC)c2c(c1-c1c3c(c(OC)c(Br)c1C(=O)OCCCCCC)OCO3)OCO2` returned an IC50 of more than 100 µg/mL. The EC50 in series [2] is 2 µg/mL (≈ 2.79 µM). Besides, the selectivity ratio in [3] is more than 50.
In the case of `COC(=O)c1cc(OC)c2c(c1-c1c3c(c(OC)c(Br)c1C(=O)OC)OCO3)OCO2`, the p24 is 10746 pg/mL and 13376 pg/mL and 8774 pg/mL and 7616 pg/mL and 7200 pg/mL and 8314 pg/mL in [5]; 148 pg ml-1 [middle of 6 runs] in series [6]; 46208 pg/mL and 28634 pg/mL and 24832 pg/mL and 26957 pg/mL and 27699 pg/mL in [7]; 23373 pg/mL in series [10].
On to `COC(=O)c1c(Br)c(OC(=O)c2ccccc2)c(OC(=O)c2ccccc2)c(OC)c1-c1c(OC)c(OC(=O)c2ccccc2)c(OC(=O)c2ccccc2)c(Br)c1C(=O)OC`, for which the IC50 in series [1] is more than 100 µg/mL. In series [2], this compound gave an EC50 of more than 100 µg/mL. The selectivity ratio in series [3] was determined as 1.
Take `COc1c(Br)c(C(=O)O)c(-c2c3c(c(OC)c(Br)c2C(=O)O)OCO3)c2c1OCO2.OCCN1CCCC1.OCCN1CCCC1`: in [1], the IC50 is more than 20 µg/mL. The compound further registered an EC50 in [2] of 17 µg/mL. Besides, the TI in series [3] is less than 1.2.
`CCOC(=O)c1c(Br)c(OC)c2c(c1-c1c3c(c(OC)c(Br)c1C(=O)O)OCO3)OCO2` displayed an IC50 in series [1] of more than 100 µg/mL. This compound gave a concentration giving a half-maximal response (EC50) in series [2] of 60 µg/mL (≈ 104 µM). In [3], the selectivity ratio is more than 1.7.
For `COc1c(OC(=O)c2ccccc2)c(OC(=O)c2ccccc2)cc(CO)c1-c1c(CO)c(Br)c(OC(=O)c2ccccc2)c(OC(=O)c2ccccc2)c1OC`, in series [1], the IC50 is more than 100 µg/mL. Moreover, in series [2], the EC50 worked out at 100 µg/mL (≈ 120 µM). Also, in series [3], the selectivity ratio was more than 1.
On to `Br.COc1c(Br)c(C(=O)O)c(-c2c3c(c(OC)c(Br)c2C(=O)NCCN2CCCC2)OCO3)c2c1OCO2`, for which, in series [1], the IC50 is more than 100 µg/mL. This compound also displayed an EC50 in series [2] of more than 100 µg/mL. Also, the selectivity ratio in [3] was 1.
`COC(=O)c1cc(OC)c2c(c1-c1c(C(=O)OC)cc(OC)c3c1OCO3)OCO2` [BIFENDATE] had an IC50 in [1] of more than 100 µg/mL. In [2], this compound displayed an EC50 of 5 µg/mL (≈ 12 µM). In addition, the selectivity ratio in series [3] is more than 20.
`Cc1cn([C@H]2C[C@H](N=[N+]=[N-])[C@@H](CO)O2)c(=O)[nH]c1=O` [ZIDOVUDINE]: the p24 is 9338 pg/mL and 9299 pg/mL and 8218 pg/mL and 8070 pg/mL in series [5]; 22 pg/mL and 13 pg/mL and 12 pg/mL and 18 pg/mL in series [8]; 19814 pg/mL and 30758 pg/mL and 31808 pg/mL and 31360 pg/mL in the series with ACH-2 cell line [11]; 167 pg ml-1 [middle of 4 runs] in the series with ACH-2 cell line [12].
